# Biological target: CRBN-DDB1 protein complex (Homo sapiens, UniProt Q96SW2)
# Test: Fluorescence Polarization (FP) assay, displacement of Cy5-labelled thalidomide
# Details: 25 nM CRBN-DDB1, 5 nM Cy5-labelled thalidomide, read-out: CRBN binding Ki
# Experimental: CRBN-DDB1 protein complex was mixed with Cy5-labelled thalidomide and a compound to be tested (the “test compound”). […] The test solution was added to a 384-well assay plate.
# The plate was spun-down (1 min, 1000 rpm, 22° C.) and then shaken using a VibroTurbulator for 10 min at room temperature (20-25° C.), with the frequency set to level 3. The assay plate with protein and the tracer was incubated for 60 min at room temperature (20-25° C.) prior to read-out with a plate reader.
# The FP experiment was carried out with various concentrations of the test compounds in order to measure Ki values.
# CRBN-DDB1 protein complex, sequence (Q96SW2 whole entry): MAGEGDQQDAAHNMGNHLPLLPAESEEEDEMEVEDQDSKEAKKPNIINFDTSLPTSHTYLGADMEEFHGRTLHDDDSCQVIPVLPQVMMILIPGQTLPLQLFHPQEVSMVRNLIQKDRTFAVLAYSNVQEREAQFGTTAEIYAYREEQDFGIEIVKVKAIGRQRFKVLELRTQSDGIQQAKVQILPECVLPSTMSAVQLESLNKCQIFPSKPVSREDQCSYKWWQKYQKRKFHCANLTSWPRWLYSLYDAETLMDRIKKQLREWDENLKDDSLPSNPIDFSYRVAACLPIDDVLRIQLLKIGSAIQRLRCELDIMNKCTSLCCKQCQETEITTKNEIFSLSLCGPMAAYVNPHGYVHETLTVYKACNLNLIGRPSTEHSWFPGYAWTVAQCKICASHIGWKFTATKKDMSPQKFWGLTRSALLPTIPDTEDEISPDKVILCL
# CRBN-DDB1 protein complex, sequence (Q16531 whole entry partner): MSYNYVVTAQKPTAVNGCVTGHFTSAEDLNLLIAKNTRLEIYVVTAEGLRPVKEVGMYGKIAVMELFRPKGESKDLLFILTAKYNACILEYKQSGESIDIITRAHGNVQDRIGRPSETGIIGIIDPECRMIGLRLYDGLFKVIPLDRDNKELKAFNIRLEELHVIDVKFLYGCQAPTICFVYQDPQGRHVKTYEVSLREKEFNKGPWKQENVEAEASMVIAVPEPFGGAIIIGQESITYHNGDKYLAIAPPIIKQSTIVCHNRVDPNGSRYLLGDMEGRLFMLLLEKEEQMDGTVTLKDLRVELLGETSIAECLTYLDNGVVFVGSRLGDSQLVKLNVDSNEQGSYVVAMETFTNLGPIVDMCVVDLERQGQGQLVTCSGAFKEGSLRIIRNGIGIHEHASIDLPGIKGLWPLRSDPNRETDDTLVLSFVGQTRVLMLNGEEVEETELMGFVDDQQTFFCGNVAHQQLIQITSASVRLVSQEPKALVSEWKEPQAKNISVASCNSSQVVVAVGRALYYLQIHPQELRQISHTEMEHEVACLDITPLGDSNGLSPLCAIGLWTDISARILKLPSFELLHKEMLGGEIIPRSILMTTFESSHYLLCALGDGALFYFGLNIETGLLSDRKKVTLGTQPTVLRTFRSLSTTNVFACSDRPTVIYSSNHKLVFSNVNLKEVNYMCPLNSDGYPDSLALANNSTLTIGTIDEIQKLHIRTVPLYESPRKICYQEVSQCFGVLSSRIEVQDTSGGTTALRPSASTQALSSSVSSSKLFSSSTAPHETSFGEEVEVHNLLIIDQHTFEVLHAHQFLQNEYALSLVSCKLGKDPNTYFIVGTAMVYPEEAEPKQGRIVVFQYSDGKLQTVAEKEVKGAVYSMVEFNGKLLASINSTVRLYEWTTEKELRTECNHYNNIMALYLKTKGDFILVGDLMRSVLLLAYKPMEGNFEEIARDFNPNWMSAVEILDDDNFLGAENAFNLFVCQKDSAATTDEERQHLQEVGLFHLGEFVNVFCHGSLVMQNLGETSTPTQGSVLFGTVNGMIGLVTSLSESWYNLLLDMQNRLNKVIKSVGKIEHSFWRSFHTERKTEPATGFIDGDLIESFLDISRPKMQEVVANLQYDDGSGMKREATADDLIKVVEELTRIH
row,Ki,Compound
1,10 to 50 µM,"NCc1csc(C(=O)NC2CCC(=O)NC2=O)c1 (centres unmarked) [Compound 52, 4-(aminomethyl)-N-(2,6-dioxopiperidin-3-yl)thiophene-2-carboxamide]"
2,< 5 µM,"O=C1CCC(NC(=O)c2cc(O)cs2)C(=O)N1 (centres unmarked) [Compound 53, N-(2,6-dioxopiperidin-3-yl)-4-hydroxythiophene-2-carboxamide]"
3,10 to 50 µM,"CC(C)(C)OC(=O)NCc1sccc1C(=O)NC1CCC(=O)NC1=O (centres unmarked) [Compound 63, tert-butyl ((3-((2,6-dioxopiperidin-3-yl)carbamoyl)thiophen-2-yl)methyl)carbamate]"
4,10 to 50 µM,"O=C1CCC(NC(=O)c2ccsc2C2CC2)C(=O)N1 (centres unmarked) [Compound 66, 2-cyclopropyl-N-(2,6-dioxopiperidin-3-yl)thiophene-3-carboxamide]"
5,10 to 50 µM,"CCOc1oc(C)nc1C(=O)NC1CCC(=O)NC1=O (centres unmarked) [Compound 68, N-(2,6-dioxopiperidin-3-yl)-5-ethoxy-2-methyloxazole-4-carboxamide]"
6,5 to 10 µM,"CC(C)(C)OC(=O)NCc1nc(C(=O)NC2CCC(=O)NC2=O)cs1 (centres unmarked) [Compound 77, tert-butyl ((4-((2,6-dioxopiperidin-3-yl)carbamoyl)thiazol-2-yl)methyl)carbamate]"
7,10 to 50 µM,"CNc1scnc1C(=O)NC1CCC(=O)NC1=O (centres unmarked) [Compound 78, N-(2,6-dioxopiperidin-3-yl)-5-(methylamino)thiazole-4-carboxamide]"

# The remaining lines, values behind:
row,Compound,Ki
1,"O=C1CCC(NC(=O)c2csc(=O)[nH]2)C(=O)N1 (centres unmarked) [Compound 15, N-(2,6-dioxopiperidin-3-yl)-2-oxo-2,3-dihydrothiazole-4-carboxamide]",5 to 10 µM
2,"CCOc1sccc1C(=O)NC1CCC(=O)NC1=O (centres unmarked) [Compound 28, N-(2,6-dioxopiperidin-3-yl)-2-ethoxythiophene-3-carboxamide]",< 5 µM
3,"COc1scc(C)c1C(=O)NC1CCC(=O)NC1=O (centres unmarked) [Compound 29, N-(2,6-dioxopiperidin-3-yl)-2-methoxy-4-methylthiophene-3-carboxamide]",5 to 10 µM
4,"COc1sc(C)cc1C(=O)NC1CCC(=O)NC1=O (centres unmarked) [Compound 30, N-(2,6-dioxopiperidin-3-yl)-2-methoxy-5-methylthiophene-3-carboxamide]",< 5 µM
5,"COc1sc(C2CC2)cc1C(=O)NC1CCC(=O)NC1=O (centres unmarked) [Compound 32, 5-cyclopropyl-N-(2,6-dioxopiperidin-3-yl)-2-methoxythiophene-3-carboxamide]",< 5 µM
6,"COc1sc(-c2ccccc2)cc1C(=O)NC1CCC(=O)NC1=O (centres unmarked) [Compound 33, N-(2,6-dioxopiperidin-3-yl)-2-methoxy-5-phenylthiophene-3-carboxamide]",< 5 µM
7,"COc1sc(Br)cc1C(=O)NC1CCC(=O)NC1=O (centres unmarked) [Compound 34, 5-bromo-N-(2,6-dioxopiperidin-3-yl)-2methoxythiophene-3-carboxamide]",< 5 µM
8,"COc1sc(C(C)(C)C)cc1C(=O)NC1CCC(=O)NC1=O (centres unmarked) [Compound 35, 5-(tert-butyl)-N-(2,6-dioxopiperidin-3-yl)-2-methoxythiophene-3-carboxamide]",< 5 µM
9,"O=C1CCC(NC(=O)c2ccsc2-n2cccn2)C(=O)N1 (centres unmarked) [Compound 39, N-(2,6-dioxopiperidin-3-yl)-2-(1H-pyrazol-1-yl)thiophene-3-carboxamide]",10 to 50 µM
10,"O=C1CCC(NC(=O)c2ccoc2C2CC2)C(=O)N1 (centres unmarked) [Compound 47, 2-cyclopropyl-N-(2,6-dioxopiperidin-3-yl)furan-3-carboxamide]",10 to 50 µM
11,"CC(C)(C)OC(=O)NCc1ccc(C(=O)NC2CCC(=O)NC2=O)s1 (centres unmarked) [Compound 49, tert-butyl ((5-((2,6-dioxopiperidin-3-yl)carbamoyl)thiophen-2-yl)methyl)carbamate]",< 5 µM
12,"NCc1ccc(C(=O)NC2CCC(=O)NC2=O)s1 (centres unmarked) [Compound 50, 5-(aminomethyl)-N-(2,6-dioxopiperidin-3-yl)thiophene-2-carboxamide]",10 to 50 µM
13,"CC(C)(C)OC(=O)NCc1csc(C(=O)NC2CCC(=O)NC2=O)c1 (centres unmarked) [Compound 51, tert-butyl ((5-((2,6-dioxopiperidin-3-yl)carbamoyl)thiophen-3-yl)methyl)carbamate]",< 5 µM

# Reference: patent US20230065745A1, “PIPERIDINE-2,6-DIONE DERIVATIVES WHICH BIND TO CEREBLON, AND METHODS OF USE THEREOF” (Captor Therapeutics S.A., priority 2019, published 2023)
